{
  "source": "patent US9955683B2",
  "about": "“Insecticidal apparatus and methods” (priority 2012, dated 2018)",
  "origin": "cited, not measured here",
  "key": {"blowfly larvae": {"tested_on": "blowfly larvae", "conditions": "sheep"}, "[1]": {"conditions": "ruminants; excretion mainly via the feces"}},
  "data": [
    {"compound": "O=C(NC(=O)c1c(F)cccc1F)Nc1ccc(Cl)cc1", "note": "[Diflubenzuron]", "values": [
      {"measurement": "duration of protection against blowfly strike", "setting": "blowfly larvae; emulsifiable concentrate used as a dip or shower, preventive use", "result": "12-14 wk"}
    ]},
    {"compound": "N#Cc1c(N)nc(NC2CC2)nc1N", "note": "[Dicyclanil]", "values": [
      {"measurement": "duration of protection, blowfly control", "setting": "blowfly larvae; pour-on formulation", "result": "up to 20 wk"}
    ]},
    {"compound": "Nc1nc(N)nc(NC2CC2)n1", "note": "[cyromazine]", "values": [
      {"measurement": "duration for which control of blowfly larvae can be maintained", "setting": "blowfly larvae; after a single pour-on application", "result": "up to 13 wk"}
    ]},
    {"compound": "Ivermectin", "values": [
      {"measurement": "fraction of unaltered molecule excreted in the urine", "setting": "[1]", "result": "< 2", "unit": "%"}
    ]}
  ]
}
